Data from patent US20080004247A1, “Combinations of Statins with Bronchodilators” (ASTRAZENECA AB, priority 2004, published 2008).

Assay: Meta-analysis of 2 one-year clinical trials: incidence of severe COPD exacerbations with and without concomitant statins
Type: in vivo, patients
Details: severe exacerbations = need for a treatment course of oral corticosteroids
Procedure: A meta-analysis was performed from 2 one-year clinical trials in moderate to severe COPD. Patients treated with budesonide (Pulmicort®), formoterol (Oxis®), formoterol+budesonide (Symbicort®) or Placebo were analysed with and without statins as concomitant medication. The incidence of severe exacerbations, defined as need for a treatment course of oral corticosteroids, was determined.

[1] = PLUS STATINS as concomitant medication

| SMILES | Incidence of exacerbations per year (EXCLUDING STATINS) | Incidence of exacerbations per year [1] |
| --- | --- | --- |
| CCCC1O[C@@H]2C[C@H]3[C@@H]4CCC5=CC(=O)C=C[C@]5(C)[C@H]4[C@@H](O)C[C@]3(C)[C@]2(C(=O)CO)O1 (stereo partly shown) [Budesonide, budesonide] | 0.9 (n = 379) per year | 0.7 (n = 8) per year |
| COc1ccc(CC(C)NCC(O)c2ccc(O)c(NC=O)c2)cc1 (stereo not shown) [Formoterol, formoterol] | 1.0 (n = 388) per year | 0.4 (n = 9) per year |
